The target of test [1] is T1, β-hydroxy-β-methylglutaryl-CoA reductase (Homo sapiens, UniProt P04035).
T1 construct: ISOLATED HEPATOCYTES OF CHICKEN; endogenous in cells; host or cells: isolated hepatocytes of chicken
T1 sequence (P04035 1-888): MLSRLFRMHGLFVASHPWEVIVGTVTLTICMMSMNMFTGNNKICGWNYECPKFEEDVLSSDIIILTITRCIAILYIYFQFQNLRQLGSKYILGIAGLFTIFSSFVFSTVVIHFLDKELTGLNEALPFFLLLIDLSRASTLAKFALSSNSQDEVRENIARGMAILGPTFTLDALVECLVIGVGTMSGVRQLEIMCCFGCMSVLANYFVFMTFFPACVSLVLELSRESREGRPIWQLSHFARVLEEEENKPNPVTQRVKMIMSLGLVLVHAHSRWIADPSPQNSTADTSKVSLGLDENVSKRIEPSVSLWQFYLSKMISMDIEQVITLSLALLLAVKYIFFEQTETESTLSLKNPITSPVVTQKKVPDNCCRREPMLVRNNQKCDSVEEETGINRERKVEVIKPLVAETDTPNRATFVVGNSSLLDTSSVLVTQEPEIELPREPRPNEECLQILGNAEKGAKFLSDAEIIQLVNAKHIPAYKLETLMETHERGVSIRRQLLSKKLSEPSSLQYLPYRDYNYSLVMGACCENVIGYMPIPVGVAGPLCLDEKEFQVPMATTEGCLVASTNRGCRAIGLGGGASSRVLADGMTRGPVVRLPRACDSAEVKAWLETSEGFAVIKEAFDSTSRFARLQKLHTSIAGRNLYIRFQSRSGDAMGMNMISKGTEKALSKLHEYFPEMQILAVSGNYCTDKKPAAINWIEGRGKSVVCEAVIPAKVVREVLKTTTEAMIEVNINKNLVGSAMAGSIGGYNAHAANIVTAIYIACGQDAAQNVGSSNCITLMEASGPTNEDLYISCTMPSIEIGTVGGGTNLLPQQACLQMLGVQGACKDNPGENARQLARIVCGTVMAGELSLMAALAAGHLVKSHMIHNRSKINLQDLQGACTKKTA
Briefly: In vitro HMG-CoA reductase activity in isolated hepatocytes of chicken. To be noted: incubation 15 minutes; for β-Hydroxy-β Methylglutaryl-CoA Reductase: means of two replicates. The format is cell-based. From the text:
These observed effects on lipogensis and cholesterogenesis could be attributed to the chemical constituents of HPBF, but clearly could not be attributed to the water insoluble plant fibers because they were not present in the latter feeding trials. Moreover, these effects were also obtained in vitro using isolated hepatocytes from chickens and rats. […] Proc. 42:1973 (Abstr.)]. Conditions for the in vitro evaluation of the solvent extracts have been described [Qureshi AA et al. (1983): Inhibition of cholesterol and fatty acid biosynthesis in liver enzymes and chicken hepatocytes by polar fractions of garlic, Lipids 18:343-348].
Cholesterol inhibitor I was re-chromatographed by HPLC and the UV absorption spectrum obtained. Maximum absorption occurred at 292 nm. This purified fraction was used for high resolution mass spectrometric analysis. Several scans were made using ionization temperatures from 90-180 degrees Centigrade to increase the possibility of detecting impurities. The high resolution mass spectrometric analysis and measurements of different peaks gave a molecular ion peak at m/e 424 and main peaks at m/e 385, 205 and 165 corresponding to C29 H44 O2 (molecular formula) C25 H36 O2, C13 H17 O2 and C10 H13 O2 moieties, respectively, which are characteristic fragmentation moieties for d-alpha-tocotrienol. Lemon grass oil is a rich source of d-alpha-tocotrienol. This product and cholesterol inhibitor I at 20 ppm were compared with the petroleum ether soluble fraction of HPBF (20% equivalent HPBF) in a group of older male White Leghorn chickens (Table 3). The results shown on Table 3 confirm those previously recorded for petroleum ether solubles of HPBF and cholestrol inhibitor I. In a final experiment, the effects of cholestrol inhibitor I and lemon grass oil on hepatocyte HMG Co-A reductase and FAS activities were tested. Both components tested in the concentration range 5-100 microgram/ml, produced a concentration-dependent suppression of HMG Co-A reductase and concentration-dependent enhancement of FAS activity (Table 4).
^1 Tenweek-old female chickens were fed standard cornsoy diet. They
were fasted for 48 hrs. and refed 72 hrs. prior to the preparation of
^2 Incubation period was 15 minutes. Values represent means of two
replicates within incubation set.
^3 pmoles of mevalonic acid synthesized per minute per mg of […]

Another test deals with Fatty Acid Synthetase. Briefly: Hepatic fatty acid synthetase activity in 13-week-old WLH male chickens. To be noted: 20 ppm in corn diet, fed four weeks, liver. The format is in vivo, chicken. The text has this:
These responses were attributed to the presence in the small grains of relatively high concentrations of beta-D-glucans and pentosans. A long-standing interest in lipid metabolism prompted us to examine certain lipogenic and cholesterolgenic enzymes in the tissues of these birds. Methods used for handling blood samples, preparing subcellular fractions of liver and assay procedures for beta-hydroxy-beta-methylglutaryl coenzyme A (HMG Co-A) reductase, fatty acid synthetase (FAS), plasma cholesterol and triglycerides and the statistical treatment of the data have been described [Qureshi AA et al. (1980): Regulation of lipid metabolism in chicken livers by dietary cereals, J Nutr 110:388-393].
Cholesterol inhibitor I was re-chromatographed by HPLC and the UV absorption spectrum obtained. Maximum absorption occurred at 292 nm. This purified fraction was used for high resolution mass spectrometric analysis. Several scans were made using ionization temperatures from 90-180 degrees Centigrade to increase the possibility of detecting impurities. […] The results shown on Table 3 confirm those previously recorded for petroleum ether solubles of HPBF and cholestrol inhibitor I. In a final experiment, the effects of cholestrol inhibitor I and lemon grass oil on hepatocyte HMG Co-A reductase and FAS activities were tested. […]
expressed as mean ± SD; N = 8 chickens per group; HMGCoA reductase = […]

Consider `CC(C)=CCC/C(C)=C/CC/C(C)=C/CC[C@]1(C)CCc2c(C)c(O)c(C)c(C)c2O1` [Cholesterol inhibitor I, 2,5,7,8-tetramethyl-2 (4,8, 12-trimethyltrideca-3,7, 11-trienyl)chroman-6-ol], for which the “β-Hydroxy-β Methylglutaryl-CoA Reductase” value in test [1] (5 μg/ml) is 45 pmoles of mevalonic acid synth; in test [1] (10 μg/ml) it was 40 pmoles of mevalonic acid synth; in test [1] (15 μg/ml), 31 pmoles of mevalonic acid synth; in test [1] (20 μg/ml) it was 30 pmoles of mevalonic acid synth; in test [1] (25 μg/ml), 28 pmoles of mevalonic acid synth; in test [1] (50 μg/ml) it was 22 pmoles of mevalonic acid synth. The “β-Hydroxy-β Methylglutaryl-CoA Reductase” value in test [1] (100 μg/ml) was 23 pmoles of mevalonic acid synth. Besides, the remaining activity at 5 µg/mL in test [1] (0.25 h, 5 μg/ml, read-out: β-Hydroxy-β Methylglutaryl-CoA Reductase, percentage of control) was 87%. The remaining activity at 10 µg/mL in test [1] (0.25 h, 10 μg/ml, read-out: β-Hydroxy-β Methylglutaryl-CoA Reductase, percentage of control) came to 77%. Also, in test [1] (0.25 h, 15 μg/ml, read-out: β-Hydroxy-β Methylglutaryl-CoA Reductase, percentage of control), the remaining activity at 15 µg/mL amounted to 60%. The remaining activity at 20 µg/mL in test [1] (0.25 h, 20 μg/ml, read-out: β-Hydroxy-β Methylglutaryl-CoA Reductase, percentage of control) came to 57%. The remaining activity at 25 µg/mL in test [1] (0.25 h, 25 μg/ml, read-out: β-Hydroxy-β Methylglutaryl-CoA Reductase, percentage of control) turned out to be 54%. In test [1] (0.25 h, 50 μg/ml, read-out: β-Hydroxy-β Methylglutaryl-CoA Reductase, percentage of control), the remaining activity at 50 µg/mL was 42%. In addition, in test [1] (0.25 h, 100 μg/ml, read-out: β-Hydroxy-β Methylglutaryl-CoA Reductase, percentage of control), the remaining activity at 100 µg/mL came to 44%. Further, in the test on Fatty Acid Synthetase, the “Fatty Acid Synthetase, percentage of control” value is 111 Percentage of respective contr. Also, the “Fatty Acid Synthetase” value with Fatty Acid Synthetase (mean ± SD, N = 8) is reported as 292 ± 9 nmoles of NADPH oxidized per m.
